What was measured:
Assay type in all cases: cell-based, human
MCF-7 cells [1] = test: Differential pulse voltammetry (DPV) response of MCF-7 cells attached on SiNW-based biosensor after drug treatment; conditions: for Absolute DPV current peak: about 2 nano-mole per liter MBZ; for Absolute DPV: about 10.5 nano-mole per liter MBZ
Source text: For DPV measurement, a derivative of linear sweep voltammetry, with a series of regular voltage pulses superimposed on the potential linear sweep. The current may be sampled twice, just before the pulse application and again, late in the pulse lifetime. The current may be measured immediately before each potential change, then the current difference may be plotted as a function of potential. By sampling the current just before the potential was changed, the effect of the charging current may be decreased. In this example, the effect of Mebendazole (MBZ), which is an antitubulin drug that induces tubulin depolymerization in cancer cells, may be investigated via an exemplary electrochemical method of the present disclosure. The MCF-7 cells attached on SiNWs of an exemplary biosensor of the present disclosure may be treated with different doses of MBZ and the electrochemical response of an individual non-treated (hereinafter “CTRL”) cell and treated cells may be monitored. Accordingly, exemplary MCF-7 cell lines isolated from grade I human breast tumors may be used as cancer cells. The MCF-7 cells may be maintained in a CO2 incubator containing about 5% CO2 and at a temperature of about 37° C. in a RPMI-1640 medium supplemented with a 5% fetal bovine serum, and 1% penicillin/streptomycin. The fresh medium may be replaced every other day. Prior to each experiment, cells may be trypsinized to be detached from the substrate and re-suspended on the SiNW electrodes of an exemplary biosensor of the present disclosure. To minimize the effect of trypsinization, the procedure may be done in less than about 4 minutes at a room temperature of about 20° C. to about 22° C. The biosensor including the attached cells may be held in an incubator for about 4 hours to achieve cells attachment on the SiNWs. Then the MBZ drug with a low concentration (about 2 nano-mole per liter) and with a high concentration (about 10.5 nano-mole per liter) may be added to the cells. […]

MCF-7 cells [2] = test: Cyclic voltammetry (CV) response of MCF-7 cells attached on SiNW-based biosensor after drug treatment
Source text: For CV characterization, three-electrode electrochemical cyclic voltammetry may be performed using the electrochemical workstation. Instead of the system electrodes, the SiNW-based biosensor including integrated SiNW electrodes may be used that is designed and fabricated pursuant to the teachings of the present disclosure. CV assay may be performed between the integrated SiNW covered working electrode 103 and counter electrode 104, with an on chip reference electrode 105 (represented in FIGS. 1 and 5A). The reference electrode may be initially calibrated by an Ag/AgCl reference electrode in a solution of about 1 mM ferrocene carboxylic acid with about 1 mM potassium chloride. CV studies may be performed using DC voltage and applying no AC frequency. For CV data recording, measurements may be carried out at about −0.8 V to 0.8 V at a scan rate of about 100 mv/s. In this example, the effect of Mebendazole (MBZ), which is an antitubulin drug that induces tubulin depolymerization in cancer cells, may be investigated via an exemplary electrochemical method of the present disclosure. The MCF-7 cells attached on SiNWs of an exemplary biosensor of the present disclosure may be treated with different doses of MBZ and the electrochemical response of an individual non-treated (hereinafter “CTRL”) cell and treated cells may be monitored. […]

MCF-7 cells [3] = test: Cell cycle progression of drug treated MCF-7 cells by flowcytometry analysis
Description: Accordingly, exemplary MCF-7 cell lines isolated from grade I human breast tumors may be used as cancer cells. The MCF-7 cells may be maintained in a CO2 incubator containing about 5% CO2 and at a temperature of about 37° C. in a RPMI-1640 medium supplemented with a 5% fetal bovine serum, and 1% penicillin/streptomycin. The fresh medium may be replaced every other day. Prior to each experiment, cells may be trypsinized to be detached from the substrate and re-suspended on the SiNW electrodes of an exemplary biosensor of the present disclosure. To minimize the effect of trypsinization, the procedure may be done in less than about 4 minutes at a room temperature of about 20° C. to about 22° C. The biosensor including the attached cells may be held in an incubator for about 4 hours to achieve cells attachment on the SiNWs. Then the MBZ drug with a low concentration (about 2 nano-mole per liter) and with a high concentration (about 10.5 nano-mole per liter) may be added to the cells. The signal recording and biological assays may be investigated at about 2, 6 and 10 hours after addition of the drug. In addition, cell cycle progression for CTRL and drug treated MCF-7 cells may be determined by flowcytometry analysis that are shown in FIG. 9A (for CTRL cells), FIG. 9B (for treated cells with about 2 nano-mole per liter of MBZ) and FIG. 9C (for treated cells with about 10.5 nano-mole per liter of MBZ). The cell's fractions in apoptotic (part 901), G0/G1 (part 902), S (part 903) and G2/M (part 904) cycles are observable in all of panels. Also, the state of counted cells for each of these three situations is represented at the Right side of the figures. […] But, proportion of G0/G1 fraction (part 902) was changed in MBZ incubated samples. The peak of G0/G1 was about 1300 in CTRL sample (FIG. 9A) meanwhile it was reduced to about 800 in MBZ (about 2 nano-mole per liter) treated cells (FIG. 9B). The result can be confirmed by side scatter versus forward scatter (SSC-FSC) diagram as a strong sign of cells granularity (represented at Right side of FIGS. 9A, 9B and 9C). […] By increasing the dose of MBZ to about 10.5 nM (FIG. 9C), apoptotic behavior (part 901) of the cells was affected. […] Such disorders in the cycle of the cells after MBZ treatment would be well demanded by affected anodic/cathodic response of the cells measured by SiNWs electrodes.

[4] = about 2 nano-mole per liter MBZ

COC(=O)Nc1nc2ccc(C(=O)c3ccccc3)cc2[nH]1 [MBZ, Mebendazole]
Absolute DPV current peak (MCF-7 cells [1]; 2 hours after treatment (CTRL about 5 nA)): about 300 nA | Absolute DPV current peak (MCF-7 cells [1]; about 12 hours after treatment): about 900 nA | Absolute DPV (MCF-7 cells [1]; 12 hours): about 2000 nA | Absolute DPV (MCF-7 cells [1]; after 2 hours): about 1400 | anodic and cathodic spikes in CV diagrams (MCF-7 cells [2]; MBZ about 2 and about 10.5 nano-mole per liter, 2 hours after drug incubation, MCF-7 on SiNW electrodes): Both anodic and cathodic spikes may be observed | height of the CV spikes (MCF-7 cells [2]; MBZ dose increased to about 10.5 nano-mole per liter, versus about 2 nano-mole per liter): increased by nearly three orders | amount of the cells in G0/G1 phase (MCF-7 cells [3]; about 10.5 nM MBZ, similar time): sharper reduction | G2/M fraction relative to CTRL (MCF-7 cells [3]; [4]): less than half | apoptotic behavior of MCF-7 cells (MCF-7 cells [3]; [4]): did not induce the apoptotic behavior | peak of G0/G1 (MCF-7 cells [3]; about 2 nano-mole per liter MBZ (CTRL about 1300)): about 800 | apoptotic cells with hypodiploid DNA (subG1 fraction) (MCF-7 cells [3]; about 2 nano-mole per liter MBZ, compared with CTRL sample): slightly increased

— patent publication US20200209181A1, “ELECTROCHEMICAL METHOD AND DEVICE FOR DETECTING THE EFFECT OF ANTICANCER DRUGS” (Nano Hesgarsazan Salamat Arya, priority 2016, published 2020)
